These results are taken from publication PMC3560421 (European journal of medicinal chemistry, 2012).

One data set relates to poly(dA-dT)n. The data set can be described thus: DNA thermal melting. The format is binding. As to conditions: thermal melting with poly(dA-dT); compared with DB766.
The nature of data set [1]: Preliminary in vivo toxicity evaluation in uninfected animals. Further details: species or system mice. As to conditions: for Adverse reaction after dosing: mouse, in vivo, ip, 30 mg/kg.
Data set [2] deals with intracellular Leishmania amazonensis. The data set can be described thus: Efficacy against intracellular Leishmania amazonensis parasites. It counts as cell-based. As to conditions: read-out: IC50 L. a., intracellular L. amazonensis.
A further data set deals with Leishmania. As to conditions: read-out: IC50 value (antileishmanial, in vitro); cited from earlier work.
Data set [3] has as its system intracellular Leishmania amazonensis. The following applies: read-out: IC50 L. a.; cited from earlier work.
The test system of data set [4] is intracellular Leishmania donovani. The following applies: read-out: IC50 L. d.; cited from earlier work.

Where two headings read alike, the source gives them in different places. Where only a bound is given, the exact number is not on record here.

Consider `Cl.Cl.N=C(Nc1ccc(NC(=N)c2ccccn2)cc1)c1ccccn1` [3a, N,N'-(1,4-phenylene)dipicolinimidamide hydrochloride], for which the “DNA binding (in words)” value in the data set on poly(dA-dT)n was “essentially do not bind to DNA”.
By IC50 is commonly meant the concentration that gives 50% inhibition. On to `Cl.Cl.N=C(Nc1ccc(Oc2ccc(NC(=N)c3ccccn3)cc2)cc1)c1ccccn1` [9c, N,N'-(oxybis(4,1-phenylene))dipicolinimidamide hydrochloride], for which, in data set [1], the “Toxicity to mice (in words)” value is “quite toxic to mice” and the “Adverse reaction after dosing” value is “severe tremors”. Moreover, the IC50 in data set [2] is less than 1000 nM.
As for `Cl.Cl.N=C(Nc1ccc(NC(=N)c2ncccn2)cc1)c1ncccn1` [3b, N,N'-(1,4-phenylene)dipyrimidine-2-carboximidamide hydrochloride], in the data set on poly(dA-dT)n, the “DNA binding (in words)” value is recorded as “essentially do not bind to DNA”.
As for `Cl.Cl.N=C(Nc1ccccn1)c1ccc(C(=N)Nc2ccccn2)cc1` [compound 6, N ^1,N ^4-di(pyridin-2-yl)terephthalimidamide hydrochloride], the “DNA binding (in words)” value with poly(dA-dT)n is given as “essentially do not bind to DNA”.
`Cl.Cl.N=C(Nc1ccc(-c2ccc(NC(=N)c3ccccn3)cc2)cc1)c1ccccn1` [9a, N,N'-([1,1'-biphenyl]-4,4'-diyl)dipicolinimidamide hydrochloride]: the “DNA binding (in words)” value with poly(dA-dT)n was “binds with the same affinity as DB766”. For the same molecule, in data set [1], the “Toxicity to mice (in words)” value is “quite toxic to mice” and the “Adverse reaction after dosing” value is given as “severe tremors”. The IC50 in data set [2] is less than 1000 nM.
`CC(C)Oc1cc(NC(=N)c2ccccn2)ccc1-c1ccc(-c2ccc(NC(=N)c3ccccn3)cc2OC(C)C)o1` [DB766]: the values for the IC50 (in the data set with Leishmania; in data set [3]; in data set [4]) were less than 100 nM, 87 nM and 36 nM, respectively.
As for `CC(C)Oc1cc(NC(=N)c2ccccn2)ccc1-c1ccc(NC(=N)c2ccccn2)cc1OC(C)C.Cl.Cl` [compound 13, N,N'-(2,2'-di-isopropoxy-[1,1'-biphenyl]-4,4'-diyl)dipicolinimidamide hydrochloride], in the data set on poly(dA-dT)n, the “DNA binding (in words)” value is recorded as “essentially does not bind to DNA”. Further, in data set [1], the “Toxicity to mice (in words)” value is “quite toxic to mice” and the “Adverse reaction after dosing” value is “severe tremors”.
